The results in this text go back to article PMC11836358 (Nature Communications, 2025).

Data set [1] deals with T1, BmrA (Bacillus subtilis, UniProt O06967, E504A). Kind of data set: biochemical.
Data set [2] deals with T1, BmrA. Kind of data set: biochemical. The source holds these as a separate data set.
Data set [3] deals with the molecule itself. Description: cryo-EM structure; purified BmrA E504A at 25 µM in 20 mM HEPES-NaOH pH 7.5, 100 mM NaCl, DDM/sodium cholate; 0, 25, 70, 100 µM or 5 mM ATP-Mg2+, with or without 100 µM R6G, or with Hœchst33342; inward-facing and outward-facing dimers reconstructed.

Where two headings read alike, the source gives them in different places.

Consider `COc1cccc2c1C(=O)c1c(O)c3c(c(O)c1C2=O)C[C@@](O)(C(=O)CO)C[C@@H]3O[C@H]1C[C@H](N)[C@H](O)[C@H](C)O1` [Doxorubicin], for which the Kd in data set [1] worked out at 7.3 ± 2.2 µM.
The molecule `Nc1ncnc2c1ncn2[C@@H]1O[C@H](COP(=O)(O)OP(=O)(O)OP(=O)(O)O)[C@@H](O)[C@H]1O` [ATP] registered a Kd in data set [2] of 154 ± 49 µM.
`CCOc1ccc(-c2nc3cc(-c4nc5cc(N6CCN(C)CC6)ccc5[nH]4)ccc3[nH]2)cc1` [Hœchst33342]: the affinity in data set [1], expressed as Kd, was 9.6 ± 1.3 µM.

B1: BmrA E504A mutant (Bacillus subtilis multidrug ABC transporter) (natural protein)
chain: MPTKKQKSKSKLKPFFALVRRTNPSYGKLAFALALSVVTTLVSLLIPLLTKQLVDGFSMSNLSGTQIGLIALVFFVQAGLSAYATYALNYNGQKIISGLRELLWKKLIKLPVSYFDTNASGETVSRVTNDTMVVKELITTHISGFITGIISVIGSLTILFIMNWKLTLLVLVVVPLAALILVPIGRKMFSISRETQDETARFTGLLNQILPEIRLVKASNAEDVEYGRGKMGISSLFKLGVREAKVQSLVGPLISLVLMAALVAVIGYGGMQVSSGELTAGALVAFILYLFQIIMPMGQITTFFTQLQKSIGATERMIEILAEEEEDTVTGKQIENAHLPIQLDRVSFGYKPDQLILKEVSAVIEAGKVTAIVGPSGGGKTTLFKLLERFYSPTAGTIRLGDEPVDTYSLESWREHIGYVSQESPLMSGTIRENICYGLERDVTDAEIEKAAEMAYALNFIKELPNQFDTEVGERGIMLSGGQRQRIAIARALLRNPSILMLDAATSSLDSQSEKSVQQALEVLMEGRTTIVIAHRLSTVVDADQLLFVEKGEITGRGTHHELMASHGLYRDFAEQQLKMNADLENKAG
notes: BmrA, efflux pump of Bacillus subtilis, type-IV MDR ABC transporter; each monomer has 1 TMD and 1 NBD; Homodimer; the plasmid pET15b encodes the mutant fused to a 6-histidine tag at the N-terminal; also called E504A^apo; E504A^R6G; source: E. coli C43(DE3)∆AcrB, pET15b; membranes solubilised in Triton X100, purified (two Ni-NTA steps, Superdex 200) in DDM/sodium cholate
As to B1, in data set [3], the binding result was “binds”.

The Kd is the concentration at which binding is half-saturated. A low value points to higher affinity.
